Here are results for 12 compounds from ChEMBL document CHEMBL1157926, “Synthesis and biological evaluation of combretastatin analogs as cell cycle inhibitors of the G1 to S transition in Saccharomyces cerevisiae” (2010).

Active and inactive are the calls of the source. No cut-off for these calls is given here.

For assay [1], the system named is Saccharomyces cerevisiae. Briefly: Induction of log phase growth arrest in Saccharomyces cerevisiae BY4741. It counts as functional, organism-based.
For assay [2], the system named is Saccharomyces cerevisiae. Briefly: Reduction of budding index in Saccharomyces cerevisiae BY4741 at 450 uM relative to control. It counts as functional. On the set-up: scale not given: the % may be the effect or the level left.
Assay [3] concerns Saccharomyces cerevisiae. As to the kind of experiment: Cell cycle arrest in Saccharomyces cerevisiae BY4741 assessed as accumulation of cells at G1 phase at 450 uM after 3 hrs by FACS analysis. It is filed as functional. A general note: A flow cytometer gives signals particle by particle.
In assay [4] the test system is Saccharomyces cerevisiae. Briefly: Induction of G1 phase arrest in Saccharomyces cerevisiae expressing TAP-tagged Clb5 assessed as down-regulation of Clb5 level at 450 uM after 3 hrs by Western blot analysis. It counts as functional, organism-based.
Assay [5] has as its system Saccharomyces cerevisiae. Briefly: Induction of G1 phase arrest in Saccharomyces cerevisiae expressing TAP-tagged Cln1 assessed as down-regulation of Cln1 level at 450 uM after 3 hrs by Western blot analysis. It is filed as functional, organism-based. In general terms: Immunoblotting shows a protein as a band on a membrane.
Assay [6] has as its system Saccharomyces cerevisiae. As to the kind of experiment: Induction of G1 phase arrest in Saccharomyces cerevisiae expressing TAP-tagged Cln2 assessed as down-regulation of Cln2 level at 450 uM after 3 hrs by Western blot analysis. It counts as functional, organism-based.
In assay [7] the test system is Saccharomyces cerevisiae. As to the kind of experiment: Induction of G1 phase arrest in Saccharomyces cerevisiae expressing TAP-tagged Sic1 assessed as down-regulation of Sic1 level at 450 uM after 3 hrs by Western blot analysis. It is filed as functional, organism-based.
The subject of assay [8] is Saccharomyces cerevisiae. Briefly: Induction of G1 phase arrest in alpha factor treated Saccharomyces cerevisiae expressing TAP-tagged Clb5 assessed as inhibition of Clb5 expression at 450 uM after 3 hrs by FACS analysis. It counts as functional, organism-based.
The subject of assay [9] is Saccharomyces cerevisiae. Briefly: Induction of snf1 phosphorylation at T210 in Saccharomyces cerevisiae expressing Snf1-9myc at 450 uM after 3 hrs by Western blot analysis. It counts as functional, organism-based.
Assay [10] concerns Saccharomyces cerevisiae. As to the kind of experiment: Growth inhibition of Saccharomyces cerevisiae BY4741 at 150 uM up to 180 mins. It counts as functional, organism-based.
The subject of assay [11] is Saccharomyces cerevisiae. As to the kind of experiment: Growth inhibition of Saccharomyces cerevisiae BY4741 at 300 uM up to 180 mins. It is filed as functional, organism-based.
The test system of assay [12] is Saccharomyces cerevisiae. As to the kind of experiment: Growth inhibition of Saccharomyces cerevisiae BY4741 at 450 uM up to 180 mins. It counts as functional, organism-based.
For assay [13], the system named is Saccharomyces cerevisiae. As to the kind of experiment: Cell cycle arrest in Saccharomyces cerevisiae BY4741 assessed as accumulation of cells at metaphase with post synthetic DNA content by FACS analysis. It is filed as functional, organism-based.
Assay [14] has as its system Saccharomyces cerevisiae. As to the kind of experiment: Cell cycle arrest in Saccharomyces cerevisiae BY4741 assessed as accumulation of cells at metaphase with short spindles by FACS analysis. It counts as functional, organism-based.

On to `COc1ccc(/C=C\c2cc(OC)c(OC)c(OC)c2)cc1O` [COMBRETASTATIN A4], for which the Activity entry in assay [1] is “Dose-dependent effect”; in assay [2] it was 42%; in [3], 50%. Further, the outcome in assay [4], in assay [8] and in assay [9] was Active. Moreover, the outcome in assay [5], in assay [6] and in assay [7] was inactive.
With `COc1ccc(/C=C\c2cc(OC)c(OC)c(OC)c2)cc1B(O)O`, the Activity result is “Dose-dependent effect” in assay [1], 42% in assay [2] and 50% in [3]. For the same compound, the result in [4], in assay [8] and in assay [9] was Active. Besides, the result in assay [5], in assay [6] and in assay [7] was inactive.
On to `COc1ccc(/C=C/c2cc(OC)c(OC)c(OC)c2)cc1O`, for which the “growth inhibition (GI)” value in assay [10], in assay [11] and in [12] was “inactive” in each case.
Consider `COc1ccc(/C=C/c2cc(OC)c(OC)c(OC)c2)cc1N`, for which the “growth inhibition (GI)” value in assay [10], in assay [11] and in assay [12] was “inactive” each time.
As for `COc1ccc(/C=C/c2cc(OC)c(OC)c(OC)c2)cc1F`, the “growth inhibition (GI)” value in assay [10], in assay [11] and in assay [12] was “inactive” in each case.
With `COc1ccc(/C=C/c2cc(OC)c(OC)c(OC)c2)c(O)c1O`, the “growth inhibition (GI)” value in assay [10], in [11] and in assay [12] was “inactive” in each case.
Consider `COc1ccc(/C=C\c2cc(OC)c(OC)c(OC)c2)cc1N`, for which the “growth inhibition (GI)” value in assay [10], in assay [11] and in assay [12] was “inactive” in each case.
With `COc1ccc(/C=C\c2cc(OC)c(OC)c(OC)c2)cc1F`, the “growth inhibition (GI)” value in assay [10], in assay [11] and in [12] was “inactive” in each case.
For the compound `COc1ccc(/C=C/c2cc(OC)c(OC)c(OC)c2)cc1B(O)O`, the “growth inhibition (GI)” value in assay [10], in assay [11] and in assay [12] was “inactive” in each case.
As for `COc1ccc(/C=C\c2cc(OC)c(OC)c(OC)c2)c(O)c1O`, the Activity entry in assay [1] is “Dose-dependent effect”. Also, the result in [13] and in [14] was Active.
As to `COc1ccc(/C=C\c2cc(OC)c(OC)c(OC)c2)cc1[N+](=O)[O-]`, the “growth inhibition (GI)” value in assay [10], in assay [11] and in assay [12] was “inactive” throughout.
For the compound `COc1ccc(/C=C/c2cc(OC)c(OC)c(OC)c2)cc1[N+](=O)[O-]`, the “growth inhibition (GI)” value in assay [10], in assay [11] and in assay [12] was “inactive” in each case.
